Laboratory results reported in patent US9763941B2, “Method of treating melanoma by administration of pharmaceutical formulations of (S)-methyl (1-((4-(3-(5-chloro-2-fluoro-3-(methylsulfonamido)phenyl)-1-isopropyl-1H-pyrazol-4-yl)pyrimidin-2-yl)amino)propan-2-yl)carbamate” (Array BioPharma, Inc., priority 2011, dated 2017).
Entries after “also recorded” stand apart in the source; their conditions may differ.

Experiment: aqueous solubility characteristics / BCS classification
Assay type: physicochemical
Excerpt: Upon emptying from the stomach, COMPOUND A has the tendency to quickly precipitate out of solution due to an abrupt solubility drop in intestinal pH. […] The present invention relates to orally bioavailable pharmaceutical solid dispersion formulations of COMPOUND A.
Therapeutic compounds with such solubility characteristics typically present pharmaceutical formulation scientists with a challenge while attempting to prepare oral formulations capable of improving oral bioavailability of the therapeutic compound. Such challenges in preparing solid oral dosage forms of COMPOUND A are overcome, according to the present invention, by formulating the compound as a solid dispersion.

- BCS class: BCS class II
SMILES: COC(=O)N[C@@H](C)CNc1nccc(-c2cn(C(C)C)nc2-c2cc(Cl)cc(NS(C)(=O)=O)c2F)n1 [COMPOUND A, (S)-methyl (1-((4-(3-(5-chloro-2-fluoro-3-(methylsulfonamido)phenyl)-1-isopropyl-1H-pyrazol-4-yl)pyrimidin-2-yl)amino)propan-2-yl)carbamate]
- solubility at low pH (low pH): higher solubility; also recorded: highly soluble
- aqueous solubility at weakly acidic and neutral pH (weakly acidic and neutral pH): limited solubility; also recorded: poor aqueous solubility
